# Experimental data: patent publication US6624174B2, “2-amino-nicotinamide derivatives and their use as VEGF-receptor tyrosine kinase inhibitors” (Novartis AG, priority 2000, dated 2003)
row,melting point [°C],SMILES
1,123 to 125,"COc1ccc(CNc2ncccc2C(=O)Nc2ccc(Br)c(C(F)(F)F)c2)cn1 [Example 24, 2-[(6-Methoxypyrid-3-yl)methylamino]-N-[4-bromo-3-(trifluoromethyl)phenyl]-3-pyridinecarboxamide]"
2,213 to 217,"CC#Cc1ccc(NC(=O)c2cccnc2NCc2ccncc2)cc1C(F)(F)F [Example 31, 2-[(4-Pyridyl)methylamino]-N-[4-propynyl-3-(trifluoromethyl)phenyl]3-pyridinecarboxamide]"
3,211 to 218,"CC#Cc1ccc(NC(=O)c2cccnc2NCc2ccc(=O)[nH]c2)cc1C(F)(F)F [Example 32, 2-[(Pyridin-2(1H)-on-5-yl)methyl]amino-N-[4-propynyl-3-(trifluoromethyl)phenyl]-3-pyridinecarboxamide]"
4,143 to 146,"O=C(Nc1cccc(C(F)(F)F)c1)c1cccnc1NCc1cccc(O)c1 [Example 34, 2-[(3-Hydroxyphenyl)methyl]amino-N-[3-(trifluoromethyl)phenyl]-3-pyridinecarboxamide]"
5,219 to 222,"O=C(Nc1cccc(C(F)(F)F)c1F)c1cccnc1NCc1ccc(=O)[nH]c1 [Example 36, 2-[(Pyridin-2(1H)-on-5-yl)methyl]amino-N-[2-fluoro-3-(trifluoromethyl)phenyl]-3-pyridinecarboxamide]"
6,220 to 224,"CCCc1ccc(NC(=O)c2cccnc2NCc2ccc(=O)[nH]c2)cc1C(F)(F)F [Example 38, 2-[(Pyridin-2(1H)-on-5-yl)methyl]amino-N-[4-propyl-3-(trifluoromethyl)phenyl]-3-pyridinecarboxamide]"
7,147 to 149,"CCCc1ccc(NC(=O)c2cccnc2NCc2ccncc2)cc1C(F)(F)F [Example 40, 2-[(4-Pyridyl)methyl]amino-N-[4-(n-propyl)-3-(trifluoromethyl)phenyl]-3-pyridinecarboxamide]"

# More lines, now with the values behind:
row,SMILES,melting point [°C]
1,COc1ccc(CNc2ncccc2C(=O)Nc2cccc(C(F)(F)F)c2)cn1.Cl.Cl,185
2,"O=C(Nc1ccc(C(F)(F)F)c(C(F)(F)F)c1)c1cccnc1NCc1ccncc1 [Example 6, 2-[(4-Pyridyl)methylamino]-N-[3,4-bis(trifluoromethyl)phenyl]-3-pyridinecarboxamide]",194 to 196
3,"O=C(Nc1cc(F)cc(C(F)(F)F)c1)c1cccnc1NCc1ccncc1 [Example 7, 2-[(4-Pyridyl)methylamino]-N-[3-fluoro-5-(trifluoromethyl)phenyl]-3-pyridinecarboxamide]",196
4,"CC(C)(C)[C@H]1CC[C@H](NC(=O)c2cccnc2NCc2ccncc2)CC1 [Example 8, 2-[(4-Pyridyl)methylamino]-N-(trans-4-tert-butyl-cyclohexyl)-3-pyridinecarboxamide]",165 to 167
5,"CCCc1ccc(NC(=O)c2cccnc2NCc2ccncc2)cc1 [Example 9, 2-[(4-Pyridyl)methylamino]-N-[4-(n-propyl)phenyl]-3-pyridinecarboxamide]",147 to 149
6,"CCCCc1ccc(NC(=O)c2cccnc2NCc2ccncc2)cc1 [Example 10, 2-[(4-Pyridyl)methylamino]-N-[4-(n-butyl)phenyl)3-pyridinecarboxamide]",107 to 108
7,"CCCCCc1ccc(NC(=O)c2cccnc2NCc2ccncc2)cc1 [Example 11, 2-[(4-Pyridyl)methylamino]-N-[4-(n-pentyl)phenyl]-3-pyridinecarboxamide]",106 to 107
8,"CC#Cc1ccc(NC(=O)c2cccnc2NCc2ccncc2)cc1 [Example 12, 2-[(4-Pyridyl)methylamino]-N-[4-(1-propynyl)phenyl]-3-pyridinecarboxamide]",216 to 221
9,"O=C(Nc1ccc2[nH]ncc2c1)c1cccnc1NCc1ccncc1 [Example 13, 2-[(4-Pyridyl)methylamino]-N-(5-indazolyl)-3-pyridinecarboxamide]",225 to 230
10,"O=C(Nc1cc2ccccc2cn1)c1cccnc1NCc1ccncc1 [Example 14, 2-[(4-Pyridyl)methylamino]-N-(3-isoquinolinyl)-3-pyridinecarboxamide]",191 to 195
11,"O=C(Nc1cccc(C(F)(F)F)c1F)c1cccnc1NCc1ccncc1 [Example 19, 2-[(4-Pyridyl)methylamino]-N-[2-fluoro-3-(trifluoromethyl)phenyl]-3-pyridinecarboxamide]",137 to 140
12,"O=C(Nc1ccc(Br)c(C(F)(F)F)c1)c1cccnc1NCc1ccncc1 [Example 20, 2-[(4-Pyridyl)methylamino]-N-[4-bromo-3-(trifluoromethyl)phenyl]-3-pyridinecarboxamide]",164 to 165
13,"Cc1c(NC(=O)c2cccnc2NCc2ccncc2)cccc1C(F)(F)F [Example 21, 2-[(4-Pyridyl)methylamino]-N-[2-methyl-3-(trifluoromethyl)phenyl]-3-pyridinecarboxamide]",146 to 147
14,"Cc1ccc(C(F)(F)F)cc1NC(=O)c1cccnc1NCc1ccncc1 [Example 22, 2-[(4-Pyridyl)methylamino]-N-[2-methyl-5-(trifluoromethyl)phenyl]-3-pyridinecarboxamide]",155 to 156
15,"CC(C)(C)[C@H]1CC[C@@H](NC(=O)c2cccnc2NCc2ccncc2)CC1 [Example 23, 2-[(4-Pyridyl)methylamino]-N-(cis-4-tert-butyl-cyclohexyl)-3-pyridinecarboxamide]",103 to 106
